From ChEMBL document CHEMBL3734713, “4-Thiazolidinone derivatives as potent antimicrobial agents: microwave-assisted synthesis, biological evaluation and docking studies” (2015)
Converted amounts (≈) assume the structure as drawn.

Key:
Micrococcus flavus = assay: Antibacterial activity against Micrococcus flavus ATCC 10240 assessed as growth inhibition after 24 hrs at 37 degC by iodonitrotetrazolium chloride staining based microdilution broth assay; type: functional; conditions: ATCC 10240, 24 h
Enterobacter cloacae = assay: Antibacterial activity against human isolate of Enterobacter cloacae assessed as growth inhibition after 24 hrs at 37 degC by iodonitrotetrazolium chloride staining based microdilution broth assay; type: functional
Bacillus cereus = assay: Antibacterial activity against clinical isolates of Bacillus cereus assessed as growth inhibition after 24 hrs at 37 degC by iodonitrotetrazolium chloride staining based microdilution broth assay; type: functional
Listeria monocytogenes = assay: Antibacterial activity against Listeria monocytogenes NCTC 7973 assessed as growth inhibition after 24 hrs at 37 degC by iodonitrotetrazolium chloride staining based microdilution broth assay; type: functional; conditions: NCTC 7973, 24 h
Staphylococcus aureus = assay: Antibacterial activity against Staphylococcus aureus ATCC 6538 assessed as growth inhibition after 24 hrs at 37 degC by iodonitrotetrazolium chloride staining based microdilution broth assay; type: functional; conditions: ATCC 6538, 24 h
Salmonella typhimurium = assay: Antibacterial activity against Salmonella typhimurium ATCC 13311 assessed as growth inhibition after 24 hrs at 37 degC by iodonitrotetrazolium chloride staining based microdilution broth assay; type: functional, Salmonella enterica subsp. enterica serovar Typhimurium; conditions: Salmonella enterica, ATCC 13311, 24 h
Escherichia coli = assay: Antibacterial activity against Escherichia coli ATCC 35210 assessed as growth inhibition after 24 hrs at 37 degC by iodonitrotetrazolium chloride staining based microdilution broth assay; type: functional; conditions: ATCC 35210, 24 h
Pseudomonas aeruginosa = assay: Antibacterial activity against Pseudomonas aeruginosa ATCC 27853 assessed as growth inhibition after 24 hrs at 37 degC by iodonitrotetrazolium chloride staining based microdilution broth assay; type: functional; conditions: ATCC 27853, 24 h
Talaromyces funiculosus = assay: Antifungal activity against Penicillium funiculosum ATCC 36839 assessed as growth inhibition after 72 hrs at 28 degC by serial dilution method; type: functional; conditions: for MIC: Talaromyces funiculosus, ATCC 36839, 72 h
Aspergillus fumigatus = assay: Antifungal activity against Aspergillus fumigatus ATCC 1022 assessed as growth inhibition after 72 hrs at 28 degC by serial dilution method; type: functional; conditions: for MIC: Aspergillus fumigatus, ATCC 1022, 72 h
Trichoderma viride = assay: Antifungal activity against Trichoderma viride IAM 5061 assessed as growth inhibition after 72 hrs at 28 degC by serial dilution method; type: functional; conditions: for MIC: Trichoderma viride, IAM 5061, 72 h
[1] = molecular target: Human immunodeficiency virus type 1 reverse transcriptase (Human immunodeficiency virus 1) (UniProt Q72547); assay: Inhibition of HIV1 reverse transcriptase assessed as residual enzyme activity by measuring reduction in [3H]dTTP incorporation into poly(rA)-oligo(dT) at 4 uM incubated for 15 mins by scintillation counting method relative to control
Aspergillus ochraceus = assay: Antifungal activity against Aspergillus ochraceus ATCC 12066 assessed as growth inhibition after 72 hrs at 28 degC by serial dilution method; type: functional; conditions: for MIC: Aspergillus ochraceus, ATCC 12066, 72 h
Penicillium ochrochloron = assay: Antifungal activity against Penicillium ochrochloron ATCC 9112 assessed as growth inhibition after 72 hrs at 28 degC by serial dilution method; type: functional; conditions: for MIC: Penicillium ochrochloron, ATCC 9112, 72 h
Aspergillus niger = assay: Antifungal activity against Aspergillus niger ATCC 6275 assessed as growth inhibition after 72 hrs at 28 degC by serial dilution method; type: functional; conditions: for MIC: Aspergillus niger, ATCC 6275, 72 h
Candida albicans = assay: Antifungal activity against Candida albicans ATCC 10231 assessed as growth inhibition after 72 hrs at 28 degC by serial dilution method; type: functional; conditions: for MIC: Candida albicans, ATCC 10231, 72 h
Aspergillus versicolor = assay: Antifungal activity against Aspergillus versicolor ATCC 11730 assessed as growth inhibition after 72 hrs at 28 degC by serial dilution method; type: functional; conditions: for MIC: Aspergillus versicolor, ATCC 11730, 72 h

SMILES	MBC (Micrococcus flavus)	MIC (Micrococcus flavus)	MBC (Enterobacter cloacae)	MIC (Enterobacter cloacae)	MBC (Bacillus cereus)	MIC (Bacillus cereus)	MBC (Listeria monocytogenes)	MIC (Listeria monocytogenes)	MBC (Staphylococcus aureus)	MIC (Staphylococcus aureus)	MBC (Salmonella typhimurium)	MIC (Salmonella typhimurium)	MBC (Escherichia coli)	MIC (Escherichia coli)	MBC (Pseudomonas aeruginosa)	MIC (Pseudomonas aeruginosa)	MFC99.5 (Talaromyces funiculosus)	MIC (Talaromyces funiculosus)	MFC99.5 (Aspergillus fumigatus)	MIC (Aspergillus fumigatus)	other results
CC1(C)S[C@@H]2[C@H](NC(=O)[C@H](N)c3ccccc3)C(=O)N2[C@H]1C(=O)O [AMPICILLIN]	372 µM (≈ 130 µg/mL)	248 µM (≈ 86.7 µg/mL)	372 µM (≈ 130 µg/mL)	248 µM (≈ 86.6 µg/mL)	372 µM (≈ 130 µg/mL)	248 µM (≈ 86.7 µg/mL)	744 µM (≈ 260 µg/mL)	372 µM (≈ 130 µg/mL)	378 µM (≈ 132 µg/mL)	248 µM (≈ 86.7 µg/mL)	492 µM (≈ 172 µg/mL)	248 µM (≈ 86.7 µg/mL)	492 µM (≈ 172 µg/mL)	372 µM (≈ 130 µg/mL)	1240 µM (≈ 433 µg/mL)	744 µM (≈ 260 µg/mL)					
O=C1CSC(c2cccc(F)c2)N1c1nc(C23CC4CC(CC(C4)C2)C3)cs1 (stereo unspecified)	61.2 µM (≈ 25.4 µg/mL)	30.6 µM (≈ 12.7 µg/mL)	125 µM (≈ 51.8 µg/mL)	30.6 µM (≈ 12.7 µg/mL)	500 µM (≈ 207 µg/mL)	300 µM (≈ 124 µg/mL)	125 µM (≈ 51.8 µg/mL)	15.3 µM (≈ 6.34 µg/mL)	500 µM (≈ 207 µg/mL)	300 µM (≈ 124 µg/mL)	15.3 µM (≈ 6.34 µg/mL)	9 µM (≈ 3.73 µg/mL)	125 µM (≈ 51.8 µg/mL)	15.3 µM (≈ 6.34 µg/mL)	15.3 µM (≈ 6.34 µg/mL)	9 µM (≈ 3.73 µg/mL)	0.14 ×10⁻² umol/ml	0.8 µM (≈ 0.332 µg/mL)	0.14 ×10⁻² umol/ml	0.8 µM (≈ 0.332 µg/mL)	MFC99.5 (Trichoderma viride): 0.14 ×10⁻² umol/ml; MIC (Trichoderma viride): 1.2 µM (≈ 0.497 µg/mL); Activity [1]: 100%; MFC99.5 (Aspergillus ochraceus): 0.14 ×10⁻² umol/ml; MIC (Aspergillus ochraceus): 0.4 µM (≈ 0.166 µg/mL); MFC99.5 (Penicillium ochrochloron): 0.14 ×10⁻² umol/ml; MIC (Penicillium ochrochloron): 0.4 µM (≈ 0.166 µg/mL); MFC99.5 (Aspergillus niger): 0.14 ×10⁻² umol/ml; MIC (Aspergillus niger): 0.8 µM (≈ 0.332 µg/mL); MFC99.5 (Candida albicans): 0.14 ×10⁻² umol/ml; MIC (Candida albicans): 0.8 µM (≈ 0.332 µg/mL); MFC99.5 (Aspergillus versicolor): 0.14 ×10⁻² umol/ml; MIC (Aspergillus versicolor): 0.4 µM (≈ 0.166 µg/mL)
CN[C@@H]1[C@H](O[C@H]2[C@H](O[C@H]3[C@H](O)[C@@H](O)[C@H](N=C(N)N)[C@@H](O)[C@@H]3N=C(N)N)O[C@@H](C)[C@]2(O)C=O)O[C@@H](CO)[C@H](O)[C@H]1O [STREPTOMYCIN]	172 µM (≈ 100 µg/mL)	86 µM (≈ 50 µg/mL)	86 µM (≈ 50 µg/mL)	43 µM (≈ 25 µg/mL)	86 µM (≈ 50 µg/mL)	43 µM (≈ 25 µg/mL)	516 µM (≈ 300 µg/mL)	258 µM (≈ 150 µg/mL)	344 µM (≈ 200 µg/mL)	172 µM (≈ 100 µg/mL)	344 µM (≈ 200 µg/mL)	172 µM (≈ 100 µg/mL)	344 µM (≈ 200 µg/mL)	172 µM (≈ 100 µg/mL)	344 µM (≈ 200 µg/mL)	272 µM (≈ 158 µg/mL)					
CC(=O)N1CCN(c2ccc(OCC3COC(Cn4ccnc4)(c4ccc(Cl)cc4Cl)O3)cc2)CC1 (stereo unspecified) [KETOCONAZOLE]																	95 ×10⁻² umol/ml	380 µM (≈ 202 µg/mL)	95 ×10⁻² umol/ml	380 µM (≈ 202 µg/mL)	MFC99.5 (Trichoderma viride): 570 ×10⁻² umol/ml; MIC (Trichoderma viride): 4750 µM (≈ 2520 µg/mL); MFC99.5 (Aspergillus ochraceus): 95 ×10⁻² umol/ml; MIC (Aspergillus ochraceus): 380 µM (≈ 202 µg/mL); MFC99.5 (Penicillium ochrochloron): 380 ×10⁻² umol/ml; MIC (Penicillium ochrochloron): 3800 µM (≈ 2020 µg/mL); MFC99.5 (Aspergillus niger): 95 ×10⁻² umol/ml; MIC (Aspergillus niger): 380 µM (≈ 202 µg/mL); MFC99.5 (Candida albicans): 95 ×10⁻² umol/ml; MIC (Candida albicans): 380 µM (≈ 202 µg/mL); MFC99.5 (Aspergillus versicolor): 95 ×10⁻² umol/ml; MIC (Aspergillus versicolor): 380 µM (≈ 202 µg/mL)
